Reference: US20080299193A1, “Pharmaceutical composition comprising eszoplicone” (Lek Pharmaceuticals d.d., priority 2007, published 2008)
Converted amounts (≈) assume the structure as drawn.

Tests used:
[1] = Solubility of eszopiclone in phosphate buffer media at pH 6.8; assay type: physicochemical
Method: Substance containing larger particles has in general lower surface area which may result in decreased water solubility and consequently in decreased biological activity due to impaired absorption from the gastrointestinal tract. […] The solubility was measured at pH 6.8, which represents the pH in the small intestine, a primary site of drug absorption. Therefore, no effect on the gastrointestinal absorption can be expected due to larger particles of eszopiclone.
The solubility of eszopiclone in phosphate buffer media at pH 6.8 was studied at room temperature. An excess of sample was placed in the laboratory beaker filled with 50 ml media and mixed on the magnetic stirrer for 60 minutes. Afterwards, the part of the dispersion was taken from the beaker, filtered through the 0.45 μm filter and the concentration of eszopiclone was determined by UV spectroscopy.

[2] = Stress stability testing at 60° C. for 14 days, impurities by HPLC; assay type: physicochemical
Method: Tablets comprising eszopiclone with different particle sizes were prepared and exposed to stress stability testing at 60° C. for 14 days, stored in vials. The amount of formed degradation products was compared to the sample of commercially available tablets comprising eszopiclone (Lunesta®).
The HPLC analysis were performed with a WATERS Acquity UPLC system equipped with a UPLC BEH Shield, 1.7 μm, 50×2.1 mm column which was maintained in a column oven at 45° C. The mobile phase consisted of a mixture of ammonium acetate, TEA and acetonitrile with pH=5.8. The flow rate was 1.0 mL/min, and the detection wavelength was 303 nm.
All impurities eluted within 21 minutes represent the total amount of eszopiclone impurities.

Compound: CN1CCN(C(=O)O[C@H]2c3nccnc3C(=O)N2c2ccc(Cl)cn2)CC1 [Eszopiclone with d(0.9) = 32.4 μm]
- Solubility at pH 6.8 ([1]; phosphate buffer pH 6.8, room temperature, 60 minutes stirring, filtered 0.45 μm, UV spectroscopy): 0.44 mg/ml

Compound: CN1CCN(C(=O)O[C@H]2c3nccnc3C(=O)N2c2ccc(Cl)cn2)CC1 [Eszopiclone with d(0.9) > 200 μm]
- Solubility compared to substance having fine particles (in words) ([1]; pH 6.8): comparable
- solubility at 60 min ([1]; phosphate buffer, pH 6.8, aqueous buffer, thermodynamic from solid, phosphate buffer pH 6.8, room temperature, 60 minutes stirring, filtered 0.45 μm, UV spectroscopy): 570 µg/mL (≈ 1470 µM)

Compound: CN1CCN(C(=O)O[C@H]2c3nccnc3C(=O)N2c2ccc(Cl)cn2)CC1 [Substance in a crystal form, (+)-5(S)-6-(chloropyridin-2-yik)-7-oxo-6,7-dihydro-5H-pyrrolo[3,4-b]pyrazin-5-yl 4-methylpiperazine-1-carboxylate]
- Stability at elevated temperature (in words) ([2]; 60° C. for 14 days): stable
- Total sum of impurities ([2]; 14 days, 60° C., stored in vials, all impurities eluted within 21 minutes): <0.05%
- Max. unknown ([2]; 14 days, 60° C., stored in vials, maximum unknown impurity): <0.05%
